Assay results published in a compilation of properties of binary mixtures (doi:10.1016/j.jct.2017.08.033).

Assay: xn = mol fraction of the nth substance listed
Settings: 101 kPa

O=S(=O)([N-]S(=O)(=O)C(F)(F)F)C(F)(F)F.[Li+] + CC[n+]1ccn(C)c1.O=S(=O)([N-]S(=O)(=O)C(F)(F)F)C(F)(F)F
viscosity [mPa·s]
Settings | 298.15 K | 313.15 K | 328.15 K | 343.15 K | 358.15 K
x2 = 0.6 | 588 | 225 | 108.2 | 60.8 | 38.3
x2 = 0.7 | 183 | 86.6 | 47.6 | 29.6 | 20.1
x2 = 0.8 | – | 47.5 | 28.5 | 18.8 | –
x2 = 0.9 | 46.6 | 27.4 | 17.8 | 12.42 | 9.08
x2 = 0.95 | 37.4 | 22.7 | 15.1 | 10.69 | 7.96

CC[n+]1ccn(C)c1.O=S(=O)([N-]S(=O)(=O)C(F)(F)F)C(F)(F)F + O=S(=O)([N-]S(=O)(=O)C(F)(F)F)C(F)(F)F.[Li+]
x1 = 1
Settings | viscosity [mPa·s]
298.15 K | 30.7
328.15 K | 13.1
358.15 K | 7.12
